Reference: patent US20260138976A1 (Hoffmann-La Roche Inc., priority 2022, published 2026)

Legend:
primary human T-cells = assay: IL2 secretion measurements (24 h, CD3-stimulated T-cells, PBS counter screen); format: cell-based; conditions: for Emax IL2 (% activation): CD3 condition, normalised to DMSO (neutral) and 20 μM reference compound A1 = 100%; for EC50: Homo sapiens, T-cell, CD3-stimulated primary human T-cells, IL2 secretion, fitted sigmoidal curve, read-out: Tcell IL2 CD3 EC50
Procedure, shortened: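 IL-2 secretion was measured by ProQuantum or ELISA after 24 h culture of expanded human T-cells with compound, on CD3-antibody-coated plates or PBS counter-screen plates. Dosing used 5–6 points from a 20 or 10 μM final top at 3.333-fold steps in 0.2% DMSO. EC50/Emax were scaled between DMSO and 20 μM reference A1.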

[1] = molecular target: T1, DGKζ (hDGKzeta(1-928)-N-His) (Homo sapiens, UniProt Q13574); assay: In vitro DGK inhibition assay, DGKzeta ADP Glo (in house); format: biochemical; conditions: 2 nM DGKζ, 50 μM ATP, 125 uM DLG in liposomes, 1 hour reaction
T1 construct: hDGKzeta(1-928)-N-His; His (N); made in house; host or cells: Sf21 insect cells (baculovirus)
Procedure, shortened: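 ADP-Glo luminescence measured ADP formed over 1 h by Sf21-expressed full-length human enzymes: DGKα at 4 nM with 25 µM ATP, DGKζ at 2 nM with 50 µM ATP, both on 125 µM DLG in PS/PC liposomes. Dose–response used 11 threefold dilutions at 2% final DMSO.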

T1 sequence (Q13574 whole entry): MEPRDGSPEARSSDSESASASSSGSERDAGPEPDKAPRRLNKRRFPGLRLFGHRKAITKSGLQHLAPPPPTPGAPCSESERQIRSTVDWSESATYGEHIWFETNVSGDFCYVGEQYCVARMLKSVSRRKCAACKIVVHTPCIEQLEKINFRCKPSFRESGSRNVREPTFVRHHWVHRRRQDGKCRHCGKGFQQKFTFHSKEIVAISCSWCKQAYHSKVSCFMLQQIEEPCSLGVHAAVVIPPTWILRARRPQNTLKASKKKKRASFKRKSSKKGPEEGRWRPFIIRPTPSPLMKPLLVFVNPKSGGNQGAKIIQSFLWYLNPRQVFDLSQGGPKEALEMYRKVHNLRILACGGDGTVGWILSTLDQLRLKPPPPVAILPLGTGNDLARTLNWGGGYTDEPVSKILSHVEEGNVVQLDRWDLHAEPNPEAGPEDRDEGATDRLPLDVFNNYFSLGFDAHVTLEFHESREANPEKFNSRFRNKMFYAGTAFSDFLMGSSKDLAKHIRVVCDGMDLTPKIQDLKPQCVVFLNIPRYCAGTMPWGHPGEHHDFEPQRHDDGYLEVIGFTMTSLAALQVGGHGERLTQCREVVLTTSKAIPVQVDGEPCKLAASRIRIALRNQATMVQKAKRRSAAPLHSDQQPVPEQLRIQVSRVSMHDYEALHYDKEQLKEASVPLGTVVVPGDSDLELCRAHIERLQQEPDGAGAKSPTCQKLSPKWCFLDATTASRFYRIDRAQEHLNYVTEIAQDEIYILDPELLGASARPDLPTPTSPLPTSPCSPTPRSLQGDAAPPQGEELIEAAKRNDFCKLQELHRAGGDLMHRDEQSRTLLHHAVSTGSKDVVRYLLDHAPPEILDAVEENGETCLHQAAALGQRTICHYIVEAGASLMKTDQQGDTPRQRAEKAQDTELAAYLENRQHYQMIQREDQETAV

| IC50 [1] [µM] | SMILES | Emax IL2 (% activation) (primary human T-cells) | EC50 (primary human T-cells) [µM] |
| --- | --- | --- | --- |
| 1.5 | N#CC1(c2nnc(-c3ccc4c(c3)N(Cc3ccc(-c5ccc(C(F)(F)F)cn5)cc3)C(=O)[C@@H](N)CS4(=O)=O)o2)CC1 [Example 62, 1-[5-[(3R)-3-amino-1,1,4-trioxo-5-[[4-[5-(trifluoromethyl)-2-pyridyl]phenyl]methyl]-2,3-dihydro-1λ^6,5-benzothiazepin-7-yl]-1,3,4-oxadiazol-2-yl]cyclopropane-carbonitrile] | 110 | 2.11 |
| 2.79 | CCOC(F)(c1nnc(-c2ccc3c(c2)N(Cc2ccc(-c4noc(C(F)(F)F)n4)cc2)C(=O)[C@@H](N)CS3(=O)=O)o1)C(F)(F)F (stereo partly drawn) [Example 64, (3R)-3-amino-7-[5-(1-ethoxy-1,2,2,2-tetrafluoro-ethyl)-1,3,4-oxadiazol-2-yl]-1,1-dioxo-5-[[4-[5-(trifluoromethyl)-1,2,4-oxadiazol-3-yl]phenyl]methyl]-2,3-dihydro-1λ^6,5-benzothiazepin-4-one] | 543 | 0.889 |
| 0.625 | N[C@H]1CS(=O)(=O)c2ccc(-c3nnc(N4CCC(F)(F)CC4)o3)cc2N(Cc2ccc(-c3noc(C(F)(F)F)n3)cc2)C1=O [Example 68, (3R)-3-amino-7-[5-(4,4-difluoro-1-piperidyl)-1,3,4-oxadiazol-2-yl]-1,1-dioxo-5-[[4-[5-(trifluoromethyl)-1,2,4-oxadiazol-3-yl]phenyl]methyl]-2,3-dihydro-1λ^6,5-benzothiazepin-4-one] | 351 | 1.16 |
| 1.26 | N[C@H]1CS(=O)(=O)c2ccc(-c3nnc(N4CCOC(F)(F)C4)o3)cc2N(Cc2ccc(-c3nnc(C(F)(F)F)o3)cc2)C1=O [Example 80] | 360 | 3.54 |
| 0.183 | CC(C)(C#N)c1nnc(-c2cc3c(cc2F)S(=O)(=O)C[C@H](N)C(=O)N3Cc2ccc(-c3ccc(C(F)(F)F)cn3)cc2)o1 [Example 88, 2-[5-[(3R)-3-amino-8-fluoro-1,1,4-trioxo-5-[[4-[5-(trifluoromethyl)-2-pyridyl]phenyl]methyl]-2,3-dihydro-1λ^6,5-benzothiazepin-7-yl]-1,3,4-oxadiazol-2-yl]-2-methyl-propanenitrile] | 121 | 0.264 |
| 2.14 | CC(C)(C)c1nnc(-c2ccc3c(c2)N(Cc2ccc(-n4nnc(C(F)(F)F)n4)cc2)C(=O)[C@@H](N)CS3(=O)=O)o1 [Example 90, (3R)-3-amino-7-(5-tert-butyl-1,3,4-oxadiazol-2-yl)-1,1-dioxo-5-[[4-[5-(trifluoromethyl)tetrazol-2-yl]phenyl]methyl]-2,3-dihydro-1λ^6,5-benzothiazepin-4-one] | 159 | 1.01 |
| 1.71 | Cn1nc(C(F)(F)F)cc1-c1ccc(CN2C(=O)[C@@H](N)CS(=O)(=O)c3ccc(-c4nnc(C(C)(C)C)o4)cc32)cc1 [Example 92] | 157 | 2 |
| 0.485 | CC(C)(C)c1nnc(-c2ccc3c(c2)N(Cc2ccc(-c4ncc(C(F)(F)F)o4)cc2)C(=O)[C@@H](N)CS3(=O)=O)o1 [Example 93, (3R)-3-amino-7-(5-tert-butyl-1,3,4-oxadiazol-2-yl)-1,1-dioxo-5-[[4-[5-(trifluoromethyl)oxazol-2-yl]phenyl]methyl]-2,3-dihydro-1λ^6,5-benzothiazepin-4-one] | 279 | 0.202 |
| 9.19 | NC(c1nnc(-c2ccc3c(c2)N(Cc2ccc(-c4noc(C(F)(F)F)n4)cc2)C(=O)[C@@H](N)CS3(=O)=O)o1)C(F)(F)F (stereo partly drawn) [Example 94] | 76 | 2.66 |
| 2.42 | CCC(O)(c1nnc(-c2ccc3c(c2)N(Cc2ccc(-c4noc(C(F)(F)F)n4)cc2)C(=O)[C@@H](N)CS3(=O)=O)o1)C(F)(F)F (stereo partly drawn) [Example 95] | 172 | 0.807 |
| 3.38 | CC(O)(c1nnc(-c2ccc3c(c2)N(Cc2ccc(-c4noc(C(F)(F)F)n4)cc2)C(=O)[C@@H](N)CS3(=O)=O)o1)C(F)(F)F (stereo partly drawn) [Example 96, (3R)-3-amino-1,1-dioxo-7-[5-(2,2,2-trifluoro-1-hydroxy-1-methyl-ethyl)-1,3,4-oxadiazol-2-yl]-5-[[4-[5-(trifluoromethyl)-1,2,4-oxadiazol-3-yl]phenyl]methyl]-2,3-dihydro-1λ^6,5-benzothiazepin-4-one] | 232 | 1.36 |
| 1.46 | CC(C)(C#N)c1nnc(-c2ccc3c(c2)N(Cc2ccc(-c4cnc(C(F)(F)F)nc4)cc2)C(=O)[C@@H](N)CS3(=O)=O)o1 [Example 100] | 100 | 3.22 |
| 0.192 | CC(C)(C#N)c1nnc(-c2ccc3c(c2)N(Cc2ccc(-c4noc(C5CCC(F)(F)CC5)n4)cc2)C(=O)[C@@H](N)CS3(=O)=O)o1 [Example 101, 2-[5-[(3R)-3-amino-5-[[4-[5-(4,4-difluorocyclohexyl)-1,2,4-oxadiazol-3-yl]phenyl]methyl]-1,1,4-trioxo-2,3-dihydro-1λ^6,5-benzothiazepin-7-yl]-1,3,4-oxadiazol-2-yl]-2-methyl-propanenitrile] | 429 | 3.65 |
| 0.747 | CC(C)(C#N)c1nnc(-c2ccc3c(c2)N(Cc2ccc(-n4cc(C(F)(F)F)cn4)cc2)C(=O)[C@@H](N)CS3(=O)=O)o1 [Example 102, 2-[5-[(3R)-3-amino-1,1,4-trioxo-5-[[4-[4-(trifluoromethyl)pyrazol-1-yl]phenyl]methyl]-2,3-dihydro-1λ^6,5-benzothiazepin-7-yl]-1,3,4-oxadiazol-2-yl]-2-methyl-propanenitrile] | 143 | 0.635 |
| 0.787 | CC(C)(C#N)c1nnc(-c2ccc3c(c2)N(Cc2ccc(-c4ncc(C(F)(F)F)o4)cc2)C(=O)[C@@H](N)CS3(=O)=O)o1 [Example 105, 2-[5-[(3R)-3-amino-1,1,4-trioxo-5-[[4-[5-(trifluoromethyl)oxazol-2-yl]phenyl]methyl]-2,3-dihydro-1λ^6,5-benzothiazepin-7-yl]-1,3,4-oxadiazol-2-yl]-2-methyl-propanenitrile] | 146 | 0.999 |
| 2.37 | CC(C)(C#N)c1nnc(-c2ccc3c(c2)N(Cc2ccc(-c4ccc(C(F)(F)F)cc4)nc2)C(=O)[C@@H](N)CS3(=O)=O)o1 [Example 106] | 121 | 3.84 |
| 0.843 | Cn1nc(C(F)(F)F)cc1-c1ccc(CN2C(=O)[C@@H](N)CS(=O)(=O)c3ccc(-c4nnc(C(C)(C)C#N)o4)cc32)cc1 [Example 107, 2-[5-[(3R)-3-amino-5-[[4-[2-methyl-5-(trifluoromethyl)pyrazol-3-yl]phenyl]methyl]-1,1,4-trioxo-2,3-dihydro-1λ^6,5-benzothiazepin-7-yl]-1,3,4-oxadiazol-2-yl]-2-methyl-propanenitrile] | 241 | 1.39 |
